Patent US5225182A, “Vectored drug delivery system using a cephaloplastin linking agent and a methed of using the system” (priority 1991, dated 1993)

Tests used:
lung = experiment: Biodistribution by gamma camera with technicium Tc-99 m; format: in vivo, mice; details: Tc-99 m given 30 min after injection
Method: Four groups of six male F1 hybrid mice (C57BL/6X DBA/2) 6-8 weeks old (20-25g body weight) were used for the study. Group A received unconjugated cis-Platinum; the second group, B, received cis-Platinum conjugated with the organ-specific vectoring reagent macroaggregated albumin (MAA). Group C received cis-Platinum conjugated with colloidal sulfur particles. Group D was injected with MAA alone, with no cis-Platinum conjugated or unconjugated, and served as controls. Three additional mice were used as normal untreated controls.
(§1) All experimental animals were injected intravenously (IV) with 0.5 mg doses of cis-Platinum to a final concentration of […] body weight, maximum volume 0.2 mL/mouse. The above protocol was used in Examples II-VI. In Examples VIII and IX, 8 mg/kg doses were administered intravenously.
Thirty minutes after injecting the mice with either agent, one millicurie of technicium Tc-99 m was injected IV and the mice placed under a gamma camera to trace the cis-Platinum.
Similar patterns of activity were seen when both groups of mice were injected after three days.

K1210 leukemia cells = experiment: Effect on mice implanted with leukemia cells; format: in vivo, DBF mice; details: 8 mg/kg i.v.
Method: as §1
DBF mice were planted intraperitoneally with 10^4 K1210 leukemia cells. Three days later, 8 mg/kg of cis-Platinum in saline and cis-Platinum conjugate preparation was given intravenously via a tail vein.

liver = experiment: Liver function tests on blood samples; format: in vivo, mice; details: after ten days of treatment
Method: Four groups of six male F1 hybrid mice (C57BL/6X DBA/2) 6-8 weeks old (20-25g body weight) were used for the study. […] Three additional mice were used as normal untreated controls.
In Examples VIII and IX, 8 mg/kg doses were administered intravenously.
The total number of nucleated cells, that is, the total number of total white blood cells, was counted with a Coulter counter and a blood film was prepared simultaneously for lymphocyte-to-neutrophil (L/N) ratio.
Liver function tests were performed on blood samples after ten days of treatment with the solutions (see Example III). Four doses were administered each day.

Colon 38 tumors = experiment: Antitumor tests, in vitro; format: cell-based, murine; details: Colon 38, in vitro, 21 days
Method: Lewis lung murine tumors of the biological type lung carcinoma were implanted subcutaneously in the group B C57BL/6 mice. Colon 38 of the histological type colon carcinoma was implanted in group C57BL/6. Three mice from group A were implanted with Lewis lung tumors and the remaining three were implanted with colon 38 tumors subcutaneously. Three mice from control group D were implanted with Lewis lung tumors and three with colon 38 tumors.
The antitumor activity of both solutions was tested in vitro. Colon 38 tumors were used for in vitro screening of the antitumor effect. Tumors were place in 10ml solution of each of the agents. The tumors were removed after 21 days of culture growth and examined for weight loss and shrinkage in size.

L1210 leukemia cells = experiment: Effect on in vivo tumor cells (L1210 leukemia); set-up: species or system DBA mice; details: 8 mg/kg iv
Method: as §1
10^4 L1210 leukemia cells were transplanted intravenously (iv) into DBA mice. Three days later the animals received 8 mg/kg cis-Platinum in saline or 8 mg/kg cisplatinum-conjugate administered (iv) (3 animals/group)

[1] = Drug release in vitro by column elution method; format: physicochemical; details: after 14 hrs, 37° C, saline 0.4 ml/min
Method: Using the conjugate prepared in Example XXVI, the drug release was estimated in vitro by the column elution method described below.
2.0 ml of deionized water was added to 11.6 mg of dry (lyophilized) conjugate as prepared in Example XXVI. The slurry was pipetted into 140 ×7 mm glass columns. The ends of each of the columns were filled with chromatographic caps packed with glass wool. The ends were then attached to threaded zero-volume collectors and connected to 10 mm 1:0 teflon tubing. The columns were placed in a circulating water bath at 37 ° C. Saline was pumped through columns at 0.4 ml/min flow rate with an HPLC pump (ALTEX 110A). Fractions were collected as a function of time at 4° C. and analyzed by uv/vis spectroscopy method. Results: Approximately 20% drug release was found in samples taken after 14 hrs.

bones = experiment: Progesterone delivery to bones (APAAP staining); format: in vivo, mice
Method: Thirty-nine mg of finely divided progesterone were added to 2.4 ml of linking agent containing Composition C and injected into mice (see Example XII). The drug was examined for its presence in bones after 2days by taking sections of bone from ribs and staining the sections with monoclonal antibodies to progesterone using the […] labeling system as described by Cordell et al. in J. Histochem. Cytochem. 32:219 (1984).

Compound | distribution of the radioisotope in organs in the abdomen (lung) | % ILS (K1210 leukemia cells) [%] | Prothrombin clotting time (liver) | SGOT (liver) | SGPT (liver) | Serum bilirubin (liver) | Shrinkage (Colon 38 tumors) [%] | Weight loss (Colon 38 tumors) [%] | Incr. Life Span (ILS) (L1210 leukemia cells) [%] | drug release [1] | delivery to the bones (bones; after 2 days, sections of rib bone) | retention in bones as an active molecule (bones; mouse, in vivo)
N.N.[Cl-].[Cl-].[Pt+2] [cis-Pt, cis-Platinum (II) Diammine Dichloride] | even distribution of the radioisotope in all organs in the abdomen | 80 | 16 | 120 | 112 | 3.8 | 41 | 63 | 111 | – | – | –
progesterone | – | – | – | – | – | – | – | – | – | Approximately 20% | effectively delivered to the bones | up to 21 days
